Source: patent publication US5120730A, “Benzothiazepine esters, their preparation and formulations for therapeutic use” (IdB Holding SpA, priority 1990, dated 1992)
Entries after “also recorded” stand apart in the source; their conditions may differ. Like-named read-outs stand apart in the source and are kept apart here.

What was measured:
[1] = test system: isolated guinea pig atria; assay: Isolated guinea pig atria: force and frequency of spontaneous contractions; design: species or system guinea pig (Hartley-Dunkin); details: for inhibition at 10 µM / activation at 10 µM / IC25: Cavia porcellus; for inhibition at 10 µM: read-out: negative chronotropic effect; for activation at 10 µM: read-out: positive inotropic effect; for activity on force and frequency of the contractions (in words) / IC25: isolated guinea pig atria; for IC25: n = 6
Protocol: 1. The atria taken from Hartley-Dunkin guinea pigs of average weight 400-450 g were placed in an isolated organ bath of 15 ml containing a physiological Krebs solution (J. C. Doxey et al., Br. J. Pharmac. 78, 498, 1983) at a temperature of 30°±0.5° and oxygenated by means of a gaseous mixture composed of 95% of O2 and 5% of CO2. The force and frequency of the spontaneous contractions (T. De Gubareff and W. Sleaton Jr., J. Pharm. Exp. Ther., 148, 202, 1965) were recorded by means of an isometric force transducer. The concentration of product required to reduce the contraction force and frequency by 25% (IC25) and the relevant pIC25 were calculated.

[2] = rats
Excerpt: (§1) Sprague-Dawley rats of both sexes (5 male+5 female) were used for each experimental group.

isolated rat portal vein = assay: Isolated rat portal vein: force of spontaneous contraction; design: species or system rat (Sprague-Dawley); details: for selectivity, isolated vessels vs atria (in words): comparison of rat portal vein with guinea pig atria; for inhibition of contraction force (in words) / IC50: isolated rat portal vein; for IC50: 50% reduction of contraction force, n = 6, read-out: Contraction force pIC50 (converted)
Excerpt: 2. 2-3 cm strips of portal vein were taken from Sprague-Dawley rats of 220-250 g weight.

in vivo = details: rat
Excerpt: as §1

[3] = Haemodynamics in anaesthetized rats; type: in vivo, rat (Sprague-Dawley); details: for change in BP (systemic arterial pressure) / change in HR (heart rate) / change in LVP (left intraventricular pressure) / change in dp/dt: n = 6
Protocol: Male Sprague-Dawley rats of average weight 350-400 g, anaesthetized with sodium pentobarbital in an intraperitoneal dose of 60 mg/kg, underwent cannulation for measuring the following parameters: systemic arterial pressure (BP), heart rate (HR) left intraventricular pressure (LVP) and dp/dt.
After recording of the baseline values, the substances were injected by the intravenous route within a time of 30 seconds. The changes in the parameters indicated above were measured at times of 0.5-2-10 and 20 minutes.

## COc1ccc([C@@H]2Sc3ccccc3N(CCN(C)C)C(=O)[C@@H]2OC(=O)CCC(=O)O[C@H]2C(=O)N(CCN(C)C)c3ccccc3S[C@H]2c2ccc(OC)cc2)cc1 (relative stereo) [Ib, 3,3'-[(1,4-dioxo-1,4-butanediyl)-bis(oxy)] bis[(+)-cis-5-[2-(dimethylamino)ethyl]-2,3-dihydro-2-(4-methoxyphenyl)-1,5-benzothiazepin-4(5H)-one]]
[1]
  inhibition at 10 µM: 5%
  activation at 10 µM: 12%
  activity on force and frequency of the contractions (in words): virtually inactive; also recorded: free of the negative chronotropic and inotropic effects
[2]
  toxicity versus diltiazem, intraperitoneal (in words): less toxic than the reference product
  toxicity versus diltiazem, oral (in words): LD50 comparable with that of diltiazem
Isolated rat portal vein
  selectivity, isolated vessels vs atria (in words): selective activity on the isolated vessels
  inhibition of contraction force (in words): antagonize the contraction force in a dose-dependent manner; also recorded: significantly inhibit the contraction force
  IC50: 2340 nM
In vivo; ip
  LD50 at 336 h: 600 mg/kg
In vivo; po
  LD50 at 336 h: 881 mg/kg

## COc1ccc([C@@H]2Sc3ccccc3N(CCN(C)C)C(=O)[C@@H]2OC(C)=O)cc1 [Diltiazem, (+)-Cis-5-[2-(dimethylamino)ethyl]-3-acetoxy-2,3-dihydro-2-(4-methoxyphenyl)-1,5-benzothiazepin-4(5H)-one, reference compound]
[3]; 0.35 μmol/kg i.v., 0.5 minutes
  change in BP (systemic arterial pressure): -21 mmHg
  change in HR (heart rate): -4 bpm
  change in LVP (left intraventricular pressure): -18 mmHg
  change in dp/dt: -150 mmHg/sec
[3]; 0.35 μmol/kg i.v., 2 minutes
  change in BP (systemic arterial pressure): -1 mmHg
  change in HR (heart rate): +6 bpm
  change in LVP (left intraventricular pressure): -1 mmHg
  change in dp/dt: -25 mmHg/sec
[3]; 0.35 μmol/kg i.v., 10 minutes
  change in BP (systemic arterial pressure): +6 mmHg
  change in HR (heart rate): +10 bpm
  change in LVP (left intraventricular pressure): +2 mmHg
  change in dp/dt: -17 mmHg/sec
[3]; 0.35 μmol/kg i.v., 20 minutes
  change in BP (systemic arterial pressure): +1 mmHg
  change in HR (heart rate): +3 bpm
  change in LVP (left intraventricular pressure): -5 mmHg
  change in dp/dt: -183 mmHg/sec
[3]; 0.7 μmol/kg i.v.
  effect on all observed parameters (in words): significantly reduces all the observed parameters
  effect on heart rate and contractility (in words): significant cardiodepressive effect
[3]; 0.70 μmol/kg i.v., 0.5 minutes
  change in BP (systemic arterial pressure): -52 mmHg
  change in HR (heart rate): -83 bpm
  change in LVP (left intraventricular pressure): -46 mmHg
  change in dp/dt: -658 mmHg/sec
[3]; 0.70 μmol/kg i.v., 2 minutes
  change in BP (systemic arterial pressure): -34 mmHg
  change in HR (heart rate): -99 bpm
  change in LVP (left intraventricular pressure): -24 mmHg
  change in dp/dt: -375 mmHg/sec
[3]; 0.70 μmol/kg i.v., 10 minutes
  change in BP (systemic arterial pressure): -16 mmHg
  change in HR (heart rate): -5 bpm
  change in LVP (left intraventricular pressure): -4 mmHg
  change in dp/dt: -108 mmHg/sec
[3]; 0.70 μmol/kg i.v., 20 minutes
  change in BP (systemic arterial pressure): +9 mmHg
  change in HR (heart rate): +7 bpm
  change in LVP (left intraventricular pressure): -7 mmHg
  change in dp/dt: -92 mmHg/sec
[1]; 25% reduction of contraction force, read-out: Contraction force pIC25 (converted)
  IC25: 513 nM
[1]; 25% reduction of contraction frequency, read-out: Frequency pIC25 (converted)
  IC25: 355 nM
[1]
  activity on force and frequency of the contractions (in words): significant activity
Isolated rat portal vein
  IC50: 813 nM

## COc1ccc([C@@H]2Sc3ccccc3N(CCN(C)C)C(=O)[C@@H]2OC(=O)/C=C/C(=O)O[C@H]2C(=O)N(CCN(C)C)c3ccccc3S[C@H]2c2ccc(OC)cc2)cc1 [Ia, 3,3'-[(2E)-(1,4-dioxo-1,4-butenediyl)-bis(oxy)]bis[(+)-cis-5-[2-(dimethylamino)ethyl]-2,3-dihydro-2-(4-methoxyphenyl)-1,5-benzothiazepin-4-(5H)-one]]
[3]; 0.35 μmol/kg i.v., 0.5 minutes
  change in BP (systemic arterial pressure): -32 mmHg
  change in HR (heart rate): -19 bpm
  change in LVP (left intraventricular pressure): -29 mmHg
  change in dp/dt: -31 mmHg/sec
[3]; 0.35 μmol/kg i.v., 2 minutes
  change in BP (systemic arterial pressure): -16 mmHg
  change in HR (heart rate): -19 bpm
  change in LVP (left intraventricular pressure): -11 mmHg
  change in dp/dt: -20 mmHg/sec
[3]; 0.35 μmol/kg i.v., 10 minutes
  change in BP (systemic arterial pressure): +2 mmHg
  change in HR (heart rate): -9 bpm
  change in LVP (left intraventricular pressure): -2 mmHg
  change in dp/dt: -67 mmHg/sec
[3]; 0.35 μmol/kg i.v., 20 minutes
  change in BP (systemic arterial pressure): -8 mmHg
  change in HR (heart rate): -14 bpm
  change in LVP (left intraventricular pressure): -11 mmHg
  change in dp/dt: -25 mmHg/sec
[3]; 0.7 μmol/kg i.v.
  effect on heart rate and contractility (in words): without altering the heart rate and contractility parameters
  hypotensive activity (in words): significant and lasting hypotensive activity
[3]; 0.70 μmol/kg i.v., 0.5 minutes
  change in BP (systemic arterial pressure): -32 mmHg
  change in HR (heart rate): -19 bpm
  change in LVP (left intraventricular pressure): -33 mmHg
  change in dp/dt: -15 mmHg/sec
[3]; 0.70 μmol/kg i.v., 2 minutes
  change in BP (systemic arterial pressure): -33 mmHg
  change in HR (heart rate): -11 bpm
  change in LVP (left intraventricular pressure): -32 mmHg
  change in dp/dt: -20 mmHg/sec
[3]; 0.70 μmol/kg i.v., 10 minutes
  change in BP (systemic arterial pressure): -22 mmHg
  change in HR (heart rate): -13 bpm
  change in LVP (left intraventricular pressure): -32 mmHg
  change in dp/dt: -16 mmHg/sec
[3]; 0.70 μmol/kg i.v., 20 minutes
  change in BP (systemic arterial pressure): -25 mmHg
  change in HR (heart rate): -9 bpm
  change in LVP (left intraventricular pressure): -32 mmHg
  change in dp/dt: -20 mmHg/sec
[3]; conclusion from in vivo and in vitro results
  selectivity of action (in words): selective action on the smooth vessel musculature
[1]
  inhibition at 10 µM: 5%
  activation at 10 µM: 6%
  activity on force and frequency of the contractions (in words): virtually inactive; also recorded: free of the negative chronotropic and inotropic effects
[2]
  toxicity versus diltiazem, intraperitoneal (in words): less toxic than the reference product
  toxicity versus diltiazem, oral (in words): less toxic
Isolated rat portal vein
  selectivity, isolated vessels vs atria (in words): selective activity on the isolated vessels
  inhibition of contraction force (in words): antagonize the contraction force in a dose-dependent manner; also recorded: significantly inhibit the contraction force
  IC50: 3980 nM
In vivo; ip
  LD50 at 336 h: 250 mg/kg
In vivo; po
  LD50 at 336 h: > 1500 mg/kg
